Values quoted from earlier work in patent US20060147533A1, “Antimicrobial biomaterial for blood bags” (priority 2004, published 2006).

Conditions: humans; recoveries reported following ingestion of higher doses

Compound: O=[N+]([O-])[O-].[Ag+] [silver nitrate]
- estimated fatal dose: 10 grams
